Consider one compound from patent publication US20110300154A1, “TREATMENT OF AIRWAY HYPERREACTIVITY” (CHILDREN'S MEDICAL CENTER CORPORATION, priority 2007, published 2011).

Entries after “also recorded” stand apart in the source; their conditions may differ.

The test system of test [1] is iNKT cells. Kind of test: BAL fluid secondary outcomes after α-GalCer challenge. The conditions noted are these: monkeys, after α-GalCer vs vehicle. It is filed as in vivo, cynomolgus monkeys. An excerpt: (§1) Four monkeys were challenged with α-GalCer or vehicle using a cross-over design (approved by animal care and use committees at the Children's Hospital Boston and the Charles River Laboratory), which minimized the effects of genetic variation and the differing past histories in each of the outbred monkeys. […] Each adult cynomolgus monkey was anesthetized, intubated and challenged with nebulized α-GalCer or vehicle. For safety reasons and to avoid any possible toxic effects of α-GalCer that might cause AHR, a dose escalation approach was used, starting with a very low dose of α-GalCer (150 μg/m^2), similar to the lowest doses used intravenously in Phase I safety studies in humans with solid tumors. Only one dose of α-GalCer was administered to the monkeys before evaluation of AHR, because following activation with α-GalCer, iNKT cells become anergic temporarily (53). 24 hours after challenge, the monkeys were reintubated and assessed for AHR by measuring lung resistance (RL) in response to increasing concentrations of methacholine.

In test [2] the test system is iNKT cells. To be noted: cited from earlier work.
The test system of test [3] is iNKT cells. Kind of test: AHR (lung resistance to methacholine) after nebulized α-GalCer challenge, cross-over design. The format is in vivo, cynomolgus monkeys.
Excerpt: as §1

For `CCCCCCCCCCCCCCCCCCCCCCCCCC(=O)N[C@@H](CO[C@H]1O[C@H](CO)[C@H](O)[C@H](O)[C@H]1O)[C@H](O)[C@H](O)CCCCCCCCCCCCCC` [α-GalCer, α-GalactosylCeramide], in the test on iNKT cells [1], the “increased IL-4 in the BAL fluid (secondary outcome)” value was “did not reach statistical significance”, the “increased eosinophils in the BAL fluid (secondary outcome)” value is “did not reach statistical significance”, the “increased iNKT cells in the BAL fluid (secondary outcome)” value was “did not reach statistical significance” and the “increased neutrophils in the BAL fluid (secondary outcome)” value is “did not reach statistical significance”. Besides, the “induction of AHR in wildtype / naïve mice” value in the test on iNKT cells [2] (administered into the lungs / intranasally) is given as “causes AHR; also recorded: results in the development of AHR”. In the test with iNKT cells [2] (administered into the lungs), the “induction of AHR / effects in iNKT (NKT) cell deficient mice” value is “no effects”. Further, the “induction of AHR in class II−/− mice (lack conventional CD4+ T cells)” value with iNKT cells [2] (without allergen administration) was “functioned to induce AHR”. The “percentage change in lung resistance (RL) from baseline compared to vehicle control” value in the test with iNKT cells [3] (combined data of four monkeys, highest dose of methacholine, paired T test p=0.0003) is listed as “significantly higher”. In addition, the “AHR compared to challenge with vehicle control, monkeys responding” value in the test with iNKT cells [3] (first very low inhaled dose 150 μg/m^2, 24 h after challenge, four monkeys) is recorded as “three of the four monkeys developed significantly increased AHR”. The “AHR response of monkey B (non-responder to first dose)” value in the test on iNKT cells [3] (higher dose 600 μg/m^2, 24 h after challenge) is “developed a significant AHR response”. In addition, the “induction of airway hyperreactivity (AHR)” value in the test with iNKT cells [3] (monkeys, α-GalCer challenge in the absence of ozone or allergen) was “induced AHR; also recorded: resulted in the development of significant AHR; also recorded: induces airway hyperreactivity”.
